Results on nine compounds are retold here after patent US9655886B2, “Substituted 2,3,4,5-tetrahydro-1H-pyrido[4,3-b]indoles, methods for use thereof” (priority 2015, dated 2017).

The test system of assay [1] is BALB/c male mice. As to the kind of experiment: Passive Avoidance of Mice in a Shuttle Chamber, memory disturbed by scopolamine (Example 7). In kind it is in vivo. As to conditions: scopolamine 0.3 mg/kg, injected 30 minutes before training; FIGS. 2-4. How it is done: A shuttle chamber (Ugo Basile, Italy) consisted of two sections was used. […] The sections were connected via a hole which could be shut with a vertical door. The floor was made of transverse metal bars on which DC current impulses could be fed. Experiments were carried out on aged male mice of line BALB/c weighing 20-24 grams. On the first day of the experiment 30 minutes before training the mice were injected intraintestinally with physiological solution of scopolamine (0.3 mg/kg) or scopolamine in combination with antagonists of 5-HT6 receptors 1.2.1(2)HCl, 1.2.1(4)HCl or 1.2.1(5)HCl. Each group consisted of at least 8 animals. The animals were placed in the light section, and the latent period of the first entry into the dark chamber was registered. Then the vertical door was closed and the animal was punished by 0.6 mA DC current for 3 seconds. After that the animal was carried back to its living cell. In 22-24 hours the same animal was placed in the light section of the shuttle chamber once again and the latent period before its entry into the dark section, the total time of its stay in the light section and the number of entries into the dark section were registered. Each observation lasted for 5 minutes. The experiment was carried out during the day time in an isolated laboratory using white noise at a level of about 70 decibel above the human hearing threshold. Scopolamine causes the disturbance of training (memory loss) which results in […]. The fact that 5-HT6 receptor antagonists can improve the learning ability that has been disturbed by scopolamine is regarded as evidence for their nootropic effect.

Another assay deals with SHK male mice. As to the kind of experiment: Recognition of New Objects by Mice Under Scopolamine and MK-801. In kind it is in vivo. As to conditions: scopolamine 1 mg/kg and MK-801 0.2 mg/kg; FIG. 13-14. How it is done: The experiments were carried out in a closed cross shaped labyrinth which consisted of 4 peripheral sections connected with the central chamber via a 7×7 cm hole. The labyrinth was made of black plastic and its sections were of 14×14×14 cm size. The top cover of the labyrinth was transparent.
A mouse was placed in the central section of the labyrinth and allowed to investigate the environment. A mouse was considered to have entered a section once all of its four paws were inside the chamber. A test was considered to be completed when the mouse had moved 12 times between the sections, having made a total of 13 visits. The floor of the labyrinth was cleaned after each animal.
With each mouse the test was carried out twice with 1 hour interval.
During the first test, each section of the labyrinth contained a circular plastic cup of 3 cm height and 7 cm diameter. During the second test the cover in each of the two opposing sections was replaced by a conical glass bulb of 7 cm height and 4 cm across the bottom. The time that the mice spent in each section of the labyrinth was registered and the index of new object recognition was calculated as the ratio of the time spent in the sections with the bulbs to the time spent in all sections of the labyrinth. If no preference is given to the sections with new objects the index is 0.5.
When new objects appear the mice spend more time in the section containing them that results in an increased recognition index. Scopolamine (1 mg/kg) and MK-801 (0.2 mg/kg) disturbed learning (memory) that leads to lowering of the recognition index.

Assay [2] relates to BALB/c male mice. As to the kind of experiment: Training Mice in the Morris Water labyrinth, scopolamine. The class given is in vivo. As to conditions: scopolamine 0.6 mg/kg; 1.2.1(5)HCl 0.1 mg/kg, 1.2.1(1)HCl 1 mg/kg, tacrine 3 mg/kg; FIG. 11-12.
Procedure: A circular pool of 100 cm diameter and of 30 cm sides was used. It was filled with water at 20-22° C. A circular ceramic platform of 14 cm height was placed in the pool. The behavior of the animals was registered using an automated computer video system in addition with software package of movement analyzer Any-maze (Stoelting Co., US). The experiments were carried out on aged male mice of BALB/c line weighing 20-24 grams. Before the experiments mice fit for learning were selected. This was done by placing the platform 1 cm above the water level and putting an animal on the platform for 20 seconds. Then the mouse was put in the water on the opposite side of the pool and allowed to find the platform and climb onto it for 60 seconds, where it was left for additional 20 seconds. After that the mouse was repeatedly immersed in the water on the opposite side of the pool and allowed to search for the platform. If it failed in finding the platform within 60 seconds the experimentator helped it to find the platform and climb onto it. If the mice couldn't find the platform itself in two consecutive attempts it was excluded from the experiment.
During the next two days the platform was placed 0.5 centimeters lower the water level. Every day the mice were given four attempts for finding the platform within 60 seconds. The time interval between the attempts was 20 seconds, during which the mice stayed on the platform. Every day before the first attempt the mice was placed on the platform for 20 seconds. The time needed for finding and climbing the platform was registered. The animals were sunk in water in two different places on the side of the pool opposite to the platform.
The animals of the control group were injected with physiological solution. At least 8 animals were used in each group.
On the third day the platform was removed and each animal was placed in the pool once for a period of 60 seconds. The time each mouse spent in the area where the platform had been located during the previous days was registered. […]
Assay [3] relates to BALB/c male mice. As to the kind of experiment: Mice Behavior an Elevated Cross Shaped Labyrinth (tranquilizing action). In kind it is in vivo. The settings on record: preference index for open sections, number of defecations; FIG. 19-21. The text has this:
The length of each section in the labyrinth is 30 cm, the width is 5 cm, the height of the walls is 15 cm. Two opposite sections are closed by transparent walls on the sides and on the butt ends, the other two sections are lit and opened. A mouse was placed in the center of the labyrinth and for the next five minutes the number of entries the open and closed sections and the time spent in each type of section was registered. […] The animals usually avoid the open sections (the preference index is between 0.2 and 0.3).

In assay [4] the test system is BALB/c male mice. Briefly: Passive Avoidance of Mice in a Shuttle Chamber, scopolamine or MK-801 (Example 8). In kind it is in vivo. As to conditions: scopolamine 0.3 mg/kg or MK-801 0.1 mg/kg; SB-742457 1 mg/kg; FIGS. 5-10. How it is done:
A shuttle chamber (Ugo Basile, Italy) consisted of two sections was used. […] The sections were connected via a hole which could be shut with a vertical door. The floor was made of transverse metal bars on which DC current impulses could be fed. Experiments were carried out on aged male mice of line BALB/c weighing 20-24 grams.
On the first day of the experiment 30 minutes before training the mice were injected intraintestinally with physiological solution of scopolamine (0.3 mg/kg) or scopolamine in combination with antagonists of 5-HT6 receptors 1.2.1(2)HCl, 1.2.1(4)HCl or 1.2.1(5)HCl. Each group consisted of at least 8 animals. The animals were placed in the light section, and the latent period of the first entry into the dark chamber was registered. Then the vertical door was closed and the animal was punished by 0.6 mA DC current for 3 seconds. After that the animal was carried back to its living cell. In 22-24 hours the same animal was placed in the light section of the shuttle chamber once again and the latent period before its entry into the dark section, the total time of its stay in the light section and the number of entries into the dark section were registered. Each observation lasted for 5 minutes.
The experiment was carried out in the same way as in example 7. On the first day 30 minutes before training the mice were injected intra-intestinally with a physiological solution of scopolamine (0.3 mg/kg) or MK-801(0.1 mg/kg).

The next assay addresses T1, 5-HT6 receptor (Homo sapiens, UniProt P50406).
T1 construct: expressed in transfected cells; host or cells: HEK 293
As to the kind of experiment: Inhibition of serotonine stimulated intracellular cAMP in HEK 293 cells with expressed 5-HT6 receptor (LANCE cAMP). In kind it is cell-based. As to conditions: HEK 293 cells with artificially expressed 5-HT6 receptor; reduction of cAMP induced by serotonine. How it is done: The concentration of intracellular cAMP was determined using a LANCE cAMP reagent (PerkinElmer) by the method described by the manufacturer: [http://las.perkinelmer.com/content/Manuals/MAN_LANCEcAMP384KitUser.pdf].

T1 sequence (P50406 whole entry): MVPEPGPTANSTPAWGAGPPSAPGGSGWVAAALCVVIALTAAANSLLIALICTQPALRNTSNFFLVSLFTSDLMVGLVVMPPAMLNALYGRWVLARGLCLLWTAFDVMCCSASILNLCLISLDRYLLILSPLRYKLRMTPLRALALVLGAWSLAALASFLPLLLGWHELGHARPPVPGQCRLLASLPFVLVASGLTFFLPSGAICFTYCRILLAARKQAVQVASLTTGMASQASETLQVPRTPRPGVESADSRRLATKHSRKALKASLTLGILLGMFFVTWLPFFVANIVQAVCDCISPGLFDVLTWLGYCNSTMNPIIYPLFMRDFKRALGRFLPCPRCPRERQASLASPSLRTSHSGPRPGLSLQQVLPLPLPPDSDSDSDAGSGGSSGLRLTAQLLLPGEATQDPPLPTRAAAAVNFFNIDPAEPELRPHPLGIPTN

`Cc1ccc2c(c1)c1c(n2CCc2ccccn2)CCN(C)C1.Cl` [1.2.1(4)HCl, 2,8-dimethyl-5-[2-(pyridin-2-yl)ethyl]-2,3,4,5-tetrahydro-1H-pyrido[4,3-b]indole hydrochloride]: the “nootropic action (memory enhancement disturbed by scopolamine), passive avoidance” value with BALB/c male mice [1] is on record as “nootropic action which is the most prominent”.

Regarding `Cc1ccc2c(c1)c1c(n2CCc2ccc(C)nc2)CCN(C)C1.Cl` [1.2.1(5)HCl, 2,8-dimethyl-5-[2-(6-methylpyridin-3-yl)ethyl]-2,3,4,5-tetrahydro-1H-pyrido[4,3-b]indole hydrochloride], the “nootropic action, new object recognition” value in the assay on SHK male mice is reported as “nootropic action”. The “nootropic action (memory enhancement disturbed by scopolamine), passive avoidance” value in the assay with BALB/c male mice [1] is on record as “nootropic action”. Further, the “improvement of mice's training, Morris water labyrinth” value (from here on “improvement of mice's training”) in the assay on BALB/c male mice [2] was “statistically significant improvement of mice's training”. In the assay with BALB/c male mice [3], the “tranquilizing action, elevated cross shaped labyrinth” value is “tranquilizing action”. Moreover, in the assay with BALB/c male mice [4], the “nootropic action, passive avoidance” value is listed as “nootropic action”.

Take `O=S(=O)(c1ccccc1)c1cnc2c(N3CCNCC3)cccc2c1` [SB-742457]: in the assay on SHK male mice, the “nootropic action, new object recognition” value is “nootropic action”. Besides, the “nootropic action, passive avoidance” value with BALB/c male mice [4] is “inactive”.

As for `Cc1ccc2c(c1)c1c(n2CCc2ccccc2)CCN(C)C1.Cl` [1.2.1(1)HCl, 2,8-dimethyl-5-(2-phenylethyl)-2,3,4,5-tetrahydro-1H-pyrido[4,3-b]indole hydrochloride], the “nootropic action, new object recognition” value in the assay with SHK male mice is reported as “nootropic action, the level of which is the most prominent”. The “improvement of mice's training” value in the assay with BALB/c male mice [2] is “statistically significant improvement of mice's training”. The “tranquilizing action, elevated cross shaped labyrinth” value in the assay with BALB/c male mice [3] is “tranquilizing action, which is the most prominent”. Moreover, the “nootropic action, passive avoidance” value in the assay with BALB/c male mice [4] is listed as “highest activity”.

Consider `Cc1ccc2c(c1)c1c(n2CCc2ccncc2)CCN(C)C1.Cl` [1.2.1(2)HCl, 2,8-dimethyl-5-[2-(pyridin-4-yl)ethyl]-2,3,4,5-tetrahydro-1H-pyrido[4,3-b]indole hydrochloride], for which the “nootropic action (memory enhancement disturbed by scopolamine), passive avoidance” value in the assay with BALB/c male mice [1] was “nootropic action which is the most prominent”.

`CC12CC3CC(C)(C1)CC(N)(C3)C2` [memantine]: in the assay on SHK male mice, the “nootropic action, new object recognition” value is “nootropic action”.

For the compound `O=C1CC2(CCCC2)CC(=O)N1CCCCN1CCN(c2ncccn2)CC1` [Buspiron], the “tranquilizing action, elevated cross shaped labyrinth” value in the assay on BALB/c male mice [3] is on record as “tranquilizing action”.

Consider `Nc1c2c(nc3ccccc13)CCCC2` [tacrine], for which the “improvement of mice's training” value with BALB/c male mice [2] is reported as “statistically significant improvement of mice's training”.

As a reminder, the IC50 is the midpoint of a concentration-inhibition curve. A low value points to greater potency in that assay. In turn, `CN1CCc2c(c3ccccc3n2C#Cc2ccccc2)C1` [1.3(1), 2-methyl-5-phenylethynyl-2,3,4,5-tetrahydro-1H-pyrido[4,3-b]indole] returned a half-maximal inhibitory concentration (IC50) on 5-HT6 receptor of 4.09 µM.
